The record followed here is ChEMBL document CHEMBL1149678, “Synthesis and structure-activity relationship of RXR antagonists based on the diazepinylbenzoic acid structure” (Bioorg Med Chem Lett, 2007).

SMILES strings stand for the structures. pIC50: −log10 of the molar value.

For experiment [1], the target named is T1, Retinoic acid receptor RXR-alpha (Homo sapiens, UniProt P19793).
T1 sequence (P19793 whole entry): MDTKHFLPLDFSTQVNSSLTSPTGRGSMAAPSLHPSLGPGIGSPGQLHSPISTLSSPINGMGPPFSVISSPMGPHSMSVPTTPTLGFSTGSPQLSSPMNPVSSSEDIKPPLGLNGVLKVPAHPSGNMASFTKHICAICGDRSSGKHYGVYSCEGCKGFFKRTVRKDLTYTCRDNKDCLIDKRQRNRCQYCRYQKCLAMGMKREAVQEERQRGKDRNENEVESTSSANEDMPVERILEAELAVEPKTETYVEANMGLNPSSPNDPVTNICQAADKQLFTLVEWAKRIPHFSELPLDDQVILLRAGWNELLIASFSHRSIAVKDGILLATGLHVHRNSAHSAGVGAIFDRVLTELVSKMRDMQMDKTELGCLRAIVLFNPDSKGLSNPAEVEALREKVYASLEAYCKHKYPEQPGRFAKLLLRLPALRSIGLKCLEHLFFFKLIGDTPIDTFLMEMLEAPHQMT
Put plainly: Antagonist activity at human RXRalpha expressed in […] cells assessed as inhibition of 9-cis-retinoic acid-induced transactivation. It counts as functional, cell-based, HEK293.

For experiment [2], the target named is T1, Retinoic acid receptor RXR-alpha. The experiment is described as follows: Antagonist activity at human RXRalpha expressed in […] cells assessed as inhibition of LG-100268-induced transactivation. It counts as functional, cell-based, HEK293.

A word on the pIC50: it is the negative decadic logarithm of the IC50, by convention in mol/L.

For `CCC(=O)Nc1ccc2c(c1)N=C(c1ccc(C(=O)O)cc1)c1cc3c(cc1N2C)C(C)(C)CCC3(C)C`, the figures for the pIC50 in experiment [1] and in experiment [2] were 5.66 and 5.15, respectively.
With `COc1ccc(S(=O)(=O)Nc2ccc3c(c2)N=C(c2ccc(C(=O)O)cc2)c2cc4c(cc2N3C)C(C)(C)CCC4(C)C)cc1`, the values for the pIC50 in experiment [1] and in experiment [2] were 6.33 and 5.60, respectively.
With `CCCCS(=O)(=O)Nc1ccc2c(c1)N=C(c1ccc(C(=O)O)cc1)c1cc3c(cc1N2CC)C(C)(C)CCC3(C)C`, the pIC50 in experiment [1] is 6.70; in experiment [2], 6.49.
For the compound `CN1c2ccc(NCc3ccccc3)cc2N=C(c2ccc(C(=O)O)cc2)c2cc3c(cc21)C(C)(C)CCC3(C)C`, the pIC50 in experiment [1] is less than 5.00; in experiment [2] it was less than 4.00.
The like results for `CCN1c2ccc(NS(=O)(=O)c3ccc(F)cc3)cc2N=C(c2ccc(C(=O)O)cc2)c2cc3c(cc21)C(C)(C)CCC3(C)C` were, in that order, 6.66 and 6.38.
The like results for `CN1c2ccc(NS(=O)(=O)c3cccc(F)c3)cc2N=C(c2ccc(C(=O)O)cc2)c2cc3c(cc21)C(C)(C)CCC3(C)C` were, in that order, 5.92 and 5.64.
The like results for `CCNC(=O)Nc1ccc2c(c1)N=C(c1ccc(C(=O)O)cc1)c1cc3c(cc1N2C)C(C)(C)CCC3(C)C` were, in that order, 5.14 and 5.13.
Turning to `CN1c2ccc(NS(=O)(=O)c3ccc(-c4ccccc4)cc3)cc2N=C(c2ccc(C(=O)O)cc2)c2cc3c(cc21)C(C)(C)CCC3(C)C`, the pIC50 in experiment [1] was 5.89; in experiment [2], 5.21.
The like results for `CCCN1c2ccc(NS(=O)(=O)CCC)cc2N=C(c2ccc(C(=O)O)cc2)c2cc3c(cc21)C(C)(C)CCC3(C)C` were, in that order, 6.26 and 6.08.
Turning to `CN1c2ccc(NS(=O)(=O)c3ccccc3F)cc2N=C(c2ccc(C(=O)O)cc2)c2cc3c(cc21)C(C)(C)CCC3(C)C`, the pIC50 in experiment [1] is 5.64; in experiment [2], 5.36.
The like results for `CN1c2ccc(NC(=O)C3CCCCC3)cc2N=C(c2ccc(C(=O)O)cc2)c2cc3c(cc21)C(C)(C)CCC3(C)C` were, in that order, 5.82 and 5.35.
As to `CN1c2ccc(NS(=O)(=O)c3ccc(C(F)(F)F)cc3)cc2N=C(c2ccc(C(=O)O)cc2)c2cc3c(cc21)C(C)(C)CCC3(C)C`, the pIC50 in experiment [1] is 5.96; in experiment [2], 5.66.
The matching figures for `CN1c2ccc(NC(=O)Cc3ccc(F)cc3)cc2N=C(c2ccc(C(=O)O)cc2)c2cc3c(cc21)C(C)(C)CCC3(C)C`: 6.06 and 5.89.
The matching figures for `CCCCS(=O)(=O)Nc1ccc2c(c1)N=C(c1ccc(C(=O)O)cc1)c1cc3c(cc1N2C)C(C)(C)CCC3(C)C`: 6.43 and 6.04.
The matching figures for `CN1c2ccc(NS(=O)(=O)/C=C/c3ccccc3)cc2N=C(c2ccc(C(=O)O)cc2)c2cc3c(cc21)C(C)(C)CCC3(C)C`: 6.40 and 5.54.
Regarding `CN1c2ccc(NC(=O)/C=C/c3ccccc3)cc2N=C(c2ccc(C(=O)O)cc2)c2cc3c(cc21)C(C)(C)CCC3(C)C`, the pIC50 in experiment [1] is 5.82; in experiment [2], 5.28.
The matching figures for `CN1c2ccc(NC(=O)Cc3ccccc3)cc2N=C(c2ccc(C(=O)O)cc2)c2cc3c(cc21)C(C)(C)CCC3(C)C`: 6.01 and 5.60.
Regarding `CN1c2ccc(NS(=O)(=O)c3cccc4ccccc34)cc2N=C(c2ccc(C(=O)O)cc2)c2cc3c(cc21)C(C)(C)CCC3(C)C`, the negative-log IC50 (pIC50) in experiment [1] is 6.07; in experiment [2], 5.47.
The matching figures for `CN1c2ccc(NS(C)(=O)=O)cc2N=C(c2ccc(C(=O)O)cc2)c2cc3c(cc21)C(C)(C)CCC3(C)C`: 5.62 and 5.36.
Turning to `CN1c2ccc(NC(=O)C34CC5CC(CC(C5)C3)C4)cc2N=C(c2ccc(C(=O)O)cc2)c2cc3c(cc21)C(C)(C)CCC3(C)C`, the pIC50 is 5.54 in experiment [1] and 5.14 in experiment [2].
For the compound `CN1c2ccc(NS(=O)(=O)c3ccccc3)cc2N=C(c2ccc(C(=O)O)cc2)c2cc3c(cc21)C(C)(C)CCC3(C)C`, the pIC50 in experiment [1] was 6.29; in experiment [2], 5.85.
`CN1c2ccc(NC(=O)NCc3ccccc3)cc2N=C(c2ccc(C(=O)O)cc2)c2cc3c(cc21)C(C)(C)CCC3(C)C`: the pIC50 was 5.55 in experiment [1] and 5.60 in experiment [2].
On to `CCCN1c2ccc(NS(=O)(=O)c3ccc(F)cc3)cc2N=C(c2ccc(C(=O)O)cc2)c2cc3c(cc21)C(C)(C)CCC3(C)C`, for which the pIC50 is 6.89 in experiment [1] and 6.09 in experiment [2].
The matching figures for `CN1c2ccc(NC(=O)c3ccc(F)cc3)cc2N=C(c2ccc(C(=O)O)cc2)c2cc3c(cc21)C(C)(C)CCC3(C)C`: 5.77 and 5.80.
With `CN1c2ccc(NS(=O)(=O)c3cc(C(F)(F)F)cc(C(F)(F)F)c3)cc2N=C(c2ccc(C(=O)O)cc2)c2cc3c(cc21)C(C)(C)CCC3(C)C`, the pIC50 in experiment [1] was 5.92; in experiment [2], 5.39.
The like results for `CN1c2ccc(NS(=O)(=O)c3ccccc3C(F)(F)F)cc2N=C(c2ccc(C(=O)O)cc2)c2cc3c(cc21)C(C)(C)CCC3(C)C` were, in that order, 5.85 and 5.59.
`CCCN1c2ccc(NC(=O)Cc3ccc(F)cc3)cc2N=C(c2ccc(C(=O)O)cc2)c2cc3c(cc21)C(C)(C)CCC3(C)C`: the pIC50 in experiment [1] was 5.51; in experiment [2], 5.41.
The like results for `CCS(=O)(=O)Nc1ccc2c(c1)N=C(c1ccc(C(=O)O)cc1)c1cc3c(cc1N2C)C(C)(C)CCC3(C)C` were, in that order, 6.08 and 5.31.
As to `CN1c2ccc(NS(=O)(=O)Cc3ccccc3)cc2N=C(c2ccc(C(=O)O)cc2)c2cc3c(cc21)C(C)(C)CCC3(C)C`, the pIC50 in experiment [1] is 6.00; in experiment [2], 5.28.
Take `CN1c2ccc(NS(=O)(=O)c3ccc(F)cc3)cc2N=C(c2ccc(C(=O)O)cc2)c2cc3c(cc21)C(C)(C)CCC3(C)C`: the pIC50 in experiment [1] was 6.72; in experiment [2] it was 5.77.
The matching figures for `CN1c2ccc(NC(=O)c3cccc(C(F)(F)F)c3)cc2N=C(c2ccc(C(=O)O)cc2)c2cc3c(cc21)C(C)(C)CCC3(C)C`: 5.38 and 5.39.
The like results for `CCCC(=O)Nc1ccc2c(c1)N=C(c1ccc(C(=O)O)cc1)c1cc3c(cc1N2C)C(C)(C)CCC3(C)C` were, in that order, 5.74 and 5.41.
The matching figures for `CCN1c2ccc(NC(=O)Cc3ccc(F)cc3)cc2N=C(c2ccc(C(=O)O)cc2)c2cc3c(cc21)C(C)(C)CCC3(C)C`: 6.14 and 5.92.
Turning to `Cc1ccc(S(=O)(=O)Nc2ccc3c(c2)N=C(c2ccc(C(=O)O)cc2)c2cc4c(cc2N3C)C(C)(C)CCC4(C)C)cc1`, the pIC50 in experiment [1] is 6.37; in experiment [2], 5.60.
As for `CN1c2ccc(NS(=O)(=O)c3cccc(C(F)(F)F)c3)cc2N=C(c2ccc(C(=O)O)cc2)c2cc3c(cc21)C(C)(C)CCC3(C)C`, the pIC50 in experiment [1] was 6.32; in experiment [2], 5.82.
Regarding `CCCNC(=O)Nc1ccc2c(c1)N=C(c1ccc(C(=O)O)cc1)c1cc3c(cc1N2C)C(C)(C)CCC3(C)C`, the values for the pIC50 in experiment [1] and in experiment [2] were 5.21 and 5.28, respectively.
The matching figures for `CCCCNC(=O)Nc1ccc2c(c1)N=C(c1ccc(C(=O)O)cc1)c1cc3c(cc1N2C)C(C)(C)CCC3(C)C`: 5.48 and 5.47.
In the case of `CCCCNc1ccc2c(c1)N=C(c1ccc(C(=O)O)cc1)c1cc3c(cc1N2C)C(C)(C)CCC3(C)C`, the figures for the pIC50 in experiment [1] and in experiment [2] were less than 5.00 and less than 4.00, respectively.
Consider `CN1c2ccc(NC(=O)c3ccccc3)cc2N=C(c2ccc(C(=O)O)cc2)c2cc3c(cc21)C(C)(C)CCC3(C)C`, for which the values for the pIC50 in experiment [1] and in experiment [2] were 6.05 and 5.70, respectively.
As for `CNC(=O)Nc1ccc2c(c1)N=C(c1ccc(C(=O)O)cc1)c1cc3c(cc1N2C)C(C)(C)CCC3(C)C`, the pIC50 in experiment [1] is 4.82; in experiment [2], 4.85.
For `CCCS(=O)(=O)Nc1ccc2c(c1)N=C(c1ccc(C(=O)O)cc1)c1cc3c(cc1N2CC)C(C)(C)CCC3(C)C`, the results for the pIC50 in experiment [1] and in experiment [2] were 6.47 and 6.24, respectively.
The matching figures for `CC(C)C(=O)Nc1ccc2c(c1)N=C(c1ccc(C(=O)O)cc1)c1cc3c(cc1N2C)C(C)(C)CCC3(C)C`: 5.72 and 5.25.
The like results for `CCCCS(=O)(=O)Nc1ccc2c(c1)N=C(c1ccc(C(=O)O)cc1)c1cc3c(cc1N2CCC)C(C)(C)CCC3(C)C` were, in that order, 6.85 and 6.07.
The like results for `CNc1ccc2c(c1)N=C(c1ccc(C(=O)O)cc1)c1cc3c(cc1N2C)C(C)(C)CCC3(C)C` were, in that order, less than 5.00 and less than 4.00.
On to `CCCS(=O)(=O)Nc1ccc2c(c1)N=C(c1ccc(C(=O)O)cc1)c1cc3c(cc1N2C)C(C)(C)CCC3(C)C`, for which the values for the pIC50 in experiment [1] and in experiment [2] were 6.60 and 5.68, respectively.
